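Following 48 hours of exposure in 96-well plates, responses at five concentrations were used to interpolate endpoints linearly. GI50: concentration for 50% inhibition of growth. TGI: concentration producing complete growth inhibition.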
Columns and labels:
Assay in all cases: inhibition of tumour cell growth, NCI panel, 48 h
[1] = test system: T-47D breast
[2] = test system: MDA-N
[3] = test system: DLD-1 colon
[4] = test system: HOP-18 NSCLC
[5] = test system: LXFL 529 NSCLC
[6] = test system: M19-MEL melanoma
[7] = test system: SNB-78 CNS
[8] = test system: XF 498 CNS
[9] = test system: RXF-631 renal

Row | Compound | GI50 [1] | TGI [1] | TGI [6] | also measured
1 | O=C(/C=C/c1ccco1)c1cccc(Nc2nc(Nc3ccccc3)nc(Nc3ccccc3)n2)c1 | 3.61 µM | > 100 µM |  | 
2 | CC(=O)O[C@H]1CC[C@@]2(C)[C@@H](CC[C@@H]3[C@@H]2CC(=O)[C@@]2(C)[C@H]3C[C@@H]3CC(C)=CC(=O)[C@@H]32)C1 |  | > 100 µM |  | TGI [2]: > 100 µM
3 | CC/C(=C(/c1ccc(Cl)cc1)c1ccc(OCCCN(C)C)cc1)c1ccc(OC)cc1 | 3.76 µM | 12.1 µM |  | 
4 | COc1cccc(-c2nn(C)c3sc(C(=O)NCCN4CCN(c5ccccc5F)CC4)cc23)c1 | 4.32 µM | > 100 µM |  | 
5 | CN(Cc1cccc(Cl)c1)c1ccc(CO)c(Cl)c1 | 0.746 µM | 5.17 µM |  | 
6 | COc1cc(-c2nc3cc(Cl)c(Cl)cc3[nH]2)ccc1OCC(=O)N=Nc1c(O)[nH]c2ccccc12 | 0.288 µM | 1.14 µM |  | 
7 | OC1/C(=C/c2ccccc2)CNC/C1=C\c1ccccc1 (centres undefined) |  |  | > 100 µM | TGI [3]: > 100 µM; TGI [4]: > 100 µM; TGI [5]: > 100 µM; TGI [7]: > 100 µM
8 | O=C1/C=C/[C@@H](O)[C@@H]2C[C@@H](O)C[C@H]2/C=C/CCCCO1 | 1.14 µM | 4.43 µM |  | 
9 | C/C(=N\O)c1ccc(Nc2cc(-c3ccccc3)nc3c(O)cccc23)cc1 | 5.44 µM | 32.9 µM |  | 
10 | COc1ccccc1NC(=O)C(=O)C(C#N)CC(C)(C)C=O (centres undefined) |  | > 100 µM |  | TGI [2]: > 100 µM
11 | O=C1OC(/C=C/c2ccccc2)C(=O)C1=O (centres undefined) |  |  | > 100 µM | TGI [3]: > 100 µM; TGI [4]: > 100 µM; TGI [5]: > 100 µM; TGI [8]: > 100 µM
12 | COc1cc(/C=C/C(=O)c2ccc(SC)cc2)cc(OC)c1OC | 9.68 µM | 62.9 µM |  | 
13 | O=c1c2ccc(Br)cc2nc(-c2ccccc2)n1NC1OC(CO)C(O)C(O)C1O (centres undefined) |  |  | > 100 µM | TGI [4]: > 100 µM; TGI [5]: > 100 µM; TGI [7]: > 100 µM; TGI [8]: > 100 µM
14 | CCOC(=O)/C(C#N)=C/c1[nH]c(C)c(C)c1C |  |  | > 100 µM | TGI [3]: > 100 µM; TGI [4]: > 100 µM; TGI [5]: > 100 µM; TGI [7]: > 100 µM; TGI [8]: > 100 µM
15 | O=C(NCCOCCO)c1ccc(O)cc1 |  |  | > 100 µM | TGI [3]: > 100 µM; TGI [4]: > 100 µM; TGI [5]: > 100 µM; TGI [8]: > 100 µM
16 | C=CCOc1ccc2c(c1)CC[C@@H]1[C@@H]2CC[C@]2(C)C(=O)/C(=N/O)C[C@@H]12 | 2.64 µM | > 40.4 µM |  | 
17 | COc1ccc(/C=N/C2=C(C#N)C(c3ccccc3)c3ccc4ccccc4c3O2)cc1 (centres undefined) | 0.493 µM | > 100 µM |  | 
18 | CC(=O)SC(C[N+](=O)[O-])c1ccccc1 (centres undefined) |  | > 71.3 µM |  | TGI [2]: 9.77 µM
19 | COc1cc(Cl)c(C)cc1NC(=O)c1cc2ccccc2cc1O | 2.07 µM | 11.7 µM |  | 
20 | CCC1(O)CC(c2ccccc2)N(C)C(c2ccccc2)C1 (centres undefined) |  |  | > 100 µM | TGI [3]: > 100 µM; TGI [5]: > 100 µM; TGI [9]: > 100 µM; TGI [7]: > 100 µM
21 | COc1ccc(-n2cc(-c3ccc(F)cc3)[nH]c2=O)cc1OC | > 100 µM | > 100 µM |  | 

Row | Compound | GI50 [1] | TGI [1] | TGI [6] | also measured
22 | O=c1c(Br)ccc(Br)cc1Br | 0.744 µM | 3.71 µM |  | 
23 | O=C(Nc1ccc(-n2cc(-c3ccncc3)c(-c3ccc(Cl)c(O)c3)n2)cc1)c1ccc(Cl)c(C(F)(F)F)c1 | 3.03 µM | > 34.9 µM |  | 
24 | c1ccc2c(c1)-c1nc3ccccc3cc1C2N1CCOCC1 (centres undefined) |  | > 100 µM |  | TGI [2]: > 100 µM
25 | Nc1ncnc2c1c(-c1ccc(Oc3ccccc3)cc1)nn2C[C@H]1SSC[C@H]1O | 0.205 µM | 0.518 µM |  | 
26 | O=C(O)c1cccc(F)c1C(=O)c1ccc2ccccc2c1 |  | > 100 µM |  | TGI [2]: > 100 µM
27 | Fc1cccc(C2SCc3nc4ccccc4n32)c1 (centres undefined) |  |  | > 100 µM | TGI [3]: > 100 µM; TGI [5]: > 100 µM; TGI [9]: > 100 µM; TGI [7]: > 100 µM
28 | CCCCCCOc1ccc(/C=N/Nc2cc(C)nc3ccc(Br)cc23)cc1 | 1.82 µM | 3.72 µM |  | 
29 | Cc1cc(=O)[nH]c2c1C(=O)C(=O)C=C2 | 58.6 µM | > 100 µM |  | 
30 | COc1cc(-c2cc(C(=O)N3CCN(C(=O)c4ccccc4NCc4cccs4)CC3)nc3cc(-c4ccccc4)nn23)cc(OC)c1OC | 8.38 µM | > 100 µM |  | 
31 | NC(CSC(c1ccccc1)(c1ccccc1)c1ccc(Br)cc1)C(=O)O (centres undefined) | 0.345 µM | > 100 µM |  | 
32 | COc1ccc2c(c1)[n+](=O)c(C(=O)C/C(=N\NC(=O)C[N+](C)(C)C)C(=O)Nc1cc(Cl)ccc1Cl)c(C)n2O |  |  | > 100 µM | TGI [3]: > 100 µM; TGI [4]: > 100 µM; TGI [5]: > 100 µM; TGI [7]: > 100 µM
33 | Nc1nc(-c2ccccc2Cl)cc(-c2ccc(Cl)cc2Cl)n1 | 6.58 µM | > 100 µM |  | 
34 | Cn1cc(C2=C(c3cn(CCCN/C(N)=N\[N+](=O)[O-])c4ccccc34)C(=O)NC2=O)c2ccccc21 | 2.01 µM | > 14.8 µM |  | 
35 | O=CN/C=C\c1cc(O)ccc1O |  |  | 40.2 µM | TGI [3]: 31.6 µM; TGI [4]: 30.7 µM; TGI [5]: 22.8 µM; TGI [7]: > 100 µM; TGI [8]: 28.8 µM
36 | Cc1nc(N(C)C)nc(-c2cccc(-c3ccn(CCN(C)C)n3)c2)c1C | > 20 µM | > 20 µM |  | 
37 | OC1OC2COC(c3ccccc3)OC2C(O)C1O (centres undefined) |  |  | > 100 µM | TGI [3]: > 100 µM; TGI [4]: > 100 µM; TGI [5]: > 100 µM; TGI [7]: > 100 µM; TGI [8]: > 100 µM
38 | COC(=O)/C=C/c1cc(OC)c2c(c1)[C@@H](C(=O)OC)[C@H](c1ccc(OC)c(OC)c1)O2 | 4.99 µM | > 100 µM |  | 
39 | Nc1c(C(=O)Nc2cccc3ccccc23)sc2nc3c(cc12)CCCCCC3 | 25.1 µM | > 50 µM |  | 
40 | O=c1c(-c2nc3ccccc3[nH]2)cc2ccccc2n1Cc1cn(Cc2ccc(F)cc2)nn1 | 0.206 µM | > 100 µM |  | 
41 | C=C1[C@@H]2CCC(C)(C)[C@H]1CCC(=O)[C@@H]2C(=O)OC |  |  | > 100 µM | TGI [5]: > 100 µM; TGI [9]: > 100 µM; TGI [8]: > 100 µM
42 | COc1ccc(S(=O)(=O)Nc2c(/C=C\c3cc(OC)c(OC)c(OC)c3)ccc(OC)c2O)cc1OC | > 86.9 µM | > 100 µM |  | 

Row | Compound | GI50 [1] | TGI [1] | TGI [6] | also measured
43 | Nc1c2c(c(O)c3c1=C(CO)C=N3)=NCCS2=O (centres undefined) | 0.688 µM | 2.68 µM |  | 
44 | COc1ccc2c(C(=O)NCCCCCC(=O)O)cc3cc4c(cc3c2c1)OCO4 | 80 µM | > 100 µM |  | 
45 | CCc1cc(Cc2cc(CC)cc(C(C)(C)C)c2O)c(O)c(C(C)(C)C)c1 | 2.59 µM | 7.87 µM |  | 
46 | Cc1cnc2n(c1=O)Cc1ccccc1CO2 | 6.79 µM | 29.3 µM |  | 
47 | COc1ccc(/C=C/c2cnnc3ccccc23)cc1OC |  | > 10 µM |  | TGI [2]: > 10 µM
48 | COC(=O)c1cccc(COc2ccc([N+](=O)[O-])cc2Cl)c1 |  | > 100 µM |  | 
49 | Nc1c(S(=O)(=O)O)cc2c(c1Cl)C(=O)c1ccccc1C2=O | > 100 µM | > 100 µM |  | 
50 | COc1ccc(/C=C2\CCC(CN(C)C)C2=O)cc1 (centres undefined) |  |  | 26.6 µM | TGI [3]: 12.5 µM; TGI [4]: 19.9 µM; TGI [5]: 4.17 µM; TGI [2]: 9.09 µM; TGI [7]: 51.9 µM; TGI [8]: 16.3 µM
51 | O=P1(NCCCl)OCCC(OO)N1CCCl (centres undefined) |  | 17.7 µM | > 100 µM | TGI [3]: 50.5 µM; TGI [4]: > 100 µM; TGI [2]: > 100 µM; TGI [7]: 86.7 µM
52 | NCCCSCC(=O)O |  |  | > 100 µM | TGI [5]: > 100 µM; TGI [7]: > 100 µM
53 | O=C1C2Cc3ccccc3CN2C(=O)N1CCN1CCOCC1 (centres undefined) |  |  | > 100 µM | TGI [3]: > 100 µM; TGI [5]: > 100 µM; TGI [9]: > 100 µM
54 | CC(NC(=O)C1(N)CCCC1)C(=O)O (centres undefined) |  | > 100 µM |  | TGI [2]: > 100 µM
55 | C=C(C=O)[C@@H]1CC=C(C=O)CC1 | 3.06 µM | 26.4 µM |  | 
56 | Nc1c(-c2ccc(-c3c(N)[n+]([O-])c4ccccc4[n+]3[O-])cc2)[n+]([O-])c2ccccc2[n+]1[O-] |  |  | 36.2 µM | TGI [3]: 27.2 µM; TGI [4]: 20.2 µM; TGI [5]: 35.4 µM; TGI [7]: 62.3 µM; TGI [8]: 23.9 µM
57 | COc1cc(Nc2nccc(-c3cnn4ncccc34)n2)cc(OC)c1 | 0.122 µM | 1.55 µM |  | 
58 | Cc1ccc(Sc2cc([N+](=O)[O-])cc(Sc3ccc(C)cc3)c2Sc2ccc(C)cc2)cc1 |  |  | > 100 µM | TGI [3]: > 100 µM; TGI [5]: > 100 µM; TGI [7]: > 100 µM; TGI [8]: > 100 µM
59 | Cc1cccc(C)c1NC(=O)/C(CC(=O)CC(c1ccccc1)c1c(O)c2ccccc2oc1=O)=N/O (centres undefined) |  |  |  | TGI [2]: > 100 µM
60 | CC(=O)Oc1cc(OC(C)=O)c(OC(C)=O)c2c1CC1C(=O)C3(CCc4ccccc43)C(=O)C1C2 (centres undefined) |  |  | 30.1 µM | TGI [3]: 35.2 µM; TGI [4]: 43.6 µM; TGI [5]: 28 µM; TGI [7]: 58.2 µM; TGI [8]: 27.9 µM
61 | O=C1OC(=O)C2C1C1(c3ccccc3)OC2(c2ccccc2)c2c(Br)c(Br)c(Br)c(Br)c21 (centres undefined) |  |  | > 100 µM | TGI [3]: > 100 µM; TGI [4]: > 100 µM; TGI [5]: > 100 µM; TGI [7]: > 100 µM; TGI [8]: > 100 µM
62 | COc1ccc2nc3c(cc2c1)C(=O)CC(C(F)(F)F)C3 (centres undefined) | 3.7 µM | > 100 µM |  | 

Source: PubChem BioAssay (NCI)
